Patent publication US20030018025A1, “Certain 4-aminomethyl-2-substituted imidazole derivatives and 2-aminomethyl-4-substituted imidazole derivatives: new classes of dopamine receptor subtype specific ligands” (Neurogen Corporation, Corporation of the State of Delaware, priority 1995, published 2003)
“Also recorded” adds a separate entry of the source. Where a name gives a salt, the structure may show the parent alone.

Experiments:
[1] = target: T1, human dopamine D4 receptor subtype (Homo sapiens, UniProt P21917); experiment: D4 receptor binding, displacement of [3H]YM-09151-2; settings: Example XXXIX table
T1 construct: expressed in transfected cells
T1 sequence (P21917 1-419): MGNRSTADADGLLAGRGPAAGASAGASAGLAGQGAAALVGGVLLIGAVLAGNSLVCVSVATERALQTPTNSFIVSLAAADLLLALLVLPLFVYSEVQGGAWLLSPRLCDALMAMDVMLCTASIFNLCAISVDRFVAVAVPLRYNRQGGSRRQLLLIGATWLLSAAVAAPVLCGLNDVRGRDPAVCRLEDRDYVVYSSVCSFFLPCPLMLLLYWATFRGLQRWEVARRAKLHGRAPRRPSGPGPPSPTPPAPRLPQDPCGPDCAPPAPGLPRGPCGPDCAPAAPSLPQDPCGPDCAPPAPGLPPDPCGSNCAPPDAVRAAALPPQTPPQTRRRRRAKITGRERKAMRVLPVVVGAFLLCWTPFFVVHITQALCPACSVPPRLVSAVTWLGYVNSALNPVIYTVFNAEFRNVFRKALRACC
Method: Assay for D4 Receptor Binding Activity
Clonal cell lines expressing the human dopamine D4 receptor subtype were harvested in PBS and the cells centrifuged and the pellets stored at −80° C. until used in the binding assay. The pellets were resuspended and the cells lysed at 4° C. in 50 mM Tris pH 7.4 buffer containing 120 mM NaCl, 1 mM EDTA and 5 mM MgCl2. The homogenate is centrifuged at 48000× g for 10 minutes at 4° C. The resulting pellet is resuspended in fresh buffer and centrifuged again. After resuspension of the pellet in fresh buffer at […] aliquot is removed for protein determination. The remaining homogenate is centrifuged as above, the supernatant removed and the pellet stored at 4° C. until needed at which time it is resuspended to a final concentration of […] with 50 mM Tris buffer (pH 7.4) and 120 mM NaCl just prior to use. Incubations were carried out for 60 minutes at 25° C. in the presence of 0.1 nM [^3H] YM-09151-2. The incubation was terminated by rapid filtration through Whatman GF/C filters and rinsed with 2×4 ml washes of chilled 50 mM Tris (pH 7.4) and 120 mM NaCl. Non-specific binding was determined with […] spiperone and radioactivity determined by coiunting in an LKB beta counter. Binding parameters were determined by non-linear least squares regression analysis, from which the inhibition constant (Ki) could be calculated for each test compound. The binding characteristics of some examples of this patent are shown in Table 2 for the dopamine D4 binding assay.

[2] = target: T2, dopamine D4 receptors in human hippocampus (Homo sapiens, UniProt P21917); experiment: Binding to D4 receptors in human hippocampus
T2 construct: from tissue; host or cells: human hippocampus
T2 sequence (P21917 1-419): T1 sequence (P21917 1-419)

Dopamine Receptor D2 = Dopamine Receptor D2 (Homo sapiens, UniProt P14416); experiment: D2 receptor binding activity (Example XXXIX)
Method: (§1) Striatial tissue is dissected from adult male Sprague Dawley rats or BHK 293 cells are harvested containing recombinantly produced D2 or D3 receptors. The sample is homogenized in 100 volumes (w/vol) of 0.05 M Tris HCl buffer at 4° C. and pH 7.4. The sample is then centrifuged at 30,000× g and resuspended and rehomogenized. The sample is then centrifuged as described and the final tissue sample is frozen until use. The tissue is resuspended 1:20 (wt/vol) in 0.05 M Tris HCl buffer containing 100 mM NaCl.
(§2) Incubations are carried out at […] and contain 0.5 ml of tissue sample, 0.5 nM ^3H-raclopride and the compound of interest in a total incubation volume of 1.0 ml.
(§3) The following compounds were assayed for D2, D3, and D4 receptor binding activity using the assays described above.

[3] = target: T3, dopamine D4 receptors in rat hippocampus (Rattus norvegicus, UniProt P30729); experiment: Binding to D4 receptors in rat hippocampus
T3 construct: from tissue; host or cells: rat hippocampus
T3 sequence (P30729 1-387): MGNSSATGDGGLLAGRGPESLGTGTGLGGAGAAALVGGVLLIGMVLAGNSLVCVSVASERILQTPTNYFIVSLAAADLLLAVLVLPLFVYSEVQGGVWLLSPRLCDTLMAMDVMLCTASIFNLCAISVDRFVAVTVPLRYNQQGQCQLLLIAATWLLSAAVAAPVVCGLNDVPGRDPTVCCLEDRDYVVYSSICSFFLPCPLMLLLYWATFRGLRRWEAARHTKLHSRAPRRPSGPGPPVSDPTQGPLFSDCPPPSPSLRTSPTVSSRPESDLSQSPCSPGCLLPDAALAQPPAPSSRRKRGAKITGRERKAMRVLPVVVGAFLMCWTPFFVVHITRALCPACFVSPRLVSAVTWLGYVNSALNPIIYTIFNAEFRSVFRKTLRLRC

Dopamine Receptor D3 = target: T4, Dopamine Receptor D3 (Homo sapiens, UniProt P35462); experiment: D3 receptor binding activity (Example XXXIX)
T4 construct: expressed in transfected cells; host or cells: BHK 293 cells (so in the source)
Method: as §1, §2, §3

male Sprague Dawley rats = experiment: Step-down passive avoidance task; format: in vivo, rat
Method: Method Non-naive male Sprague Dawley rats (SASCO St Louis) weighing between […], were housed in groups of three in a temperature and humidity controlled vivarium having a 12 hour light/dark cycle. Animals had ad lib access to food and water.
Clozapine was dissolved in 50% PEG and administered in a dose range of from 0.25 to 2 mg/kg. Both drugs were administered intravenously 5 minutes prior to training in both learning tasks
A step-down passive avoidance platform 4 (cm)×7(cm) was placed in the center of an electrified gris floor, which was contained within a large (45×45×50 cm) white translucent plexiglas enclosure having a closable lid. The bars of the grip were spaced 1.5 cm apart and were wired to a BRS-LVE shock generator/scrambler which was set to deliver a 2 mA 6 second shock. Four passive avoidance boxes were automated by customer software (Labview) and commercial interface modules (National Instruments) connected to a computer The timing and delivery of the shock as well as the latency to steo down and the number of trials taken to reach criterion during training was under the control of the computer. […]
Testing was conduced approximately 24 hours after training, Drug-free animals were placed on the platform in the box in which they were trained and the latency to step down onto the unshocked floor was recorded for one trial. […]

Sequence of Dopamine Receptor D2 (P14416 whole entry): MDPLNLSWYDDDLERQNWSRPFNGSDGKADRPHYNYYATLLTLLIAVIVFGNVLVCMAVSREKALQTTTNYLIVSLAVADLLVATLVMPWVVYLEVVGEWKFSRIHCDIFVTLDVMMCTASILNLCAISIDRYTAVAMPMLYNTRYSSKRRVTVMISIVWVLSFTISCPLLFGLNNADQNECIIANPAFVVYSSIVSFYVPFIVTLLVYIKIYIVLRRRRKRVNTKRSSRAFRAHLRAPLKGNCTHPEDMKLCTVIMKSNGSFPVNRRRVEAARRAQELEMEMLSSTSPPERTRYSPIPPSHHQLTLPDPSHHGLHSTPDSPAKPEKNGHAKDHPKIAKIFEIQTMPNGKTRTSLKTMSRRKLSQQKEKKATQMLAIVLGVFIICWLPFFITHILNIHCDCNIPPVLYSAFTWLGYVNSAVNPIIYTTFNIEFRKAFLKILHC
T4 sequence (P35462 whole entry): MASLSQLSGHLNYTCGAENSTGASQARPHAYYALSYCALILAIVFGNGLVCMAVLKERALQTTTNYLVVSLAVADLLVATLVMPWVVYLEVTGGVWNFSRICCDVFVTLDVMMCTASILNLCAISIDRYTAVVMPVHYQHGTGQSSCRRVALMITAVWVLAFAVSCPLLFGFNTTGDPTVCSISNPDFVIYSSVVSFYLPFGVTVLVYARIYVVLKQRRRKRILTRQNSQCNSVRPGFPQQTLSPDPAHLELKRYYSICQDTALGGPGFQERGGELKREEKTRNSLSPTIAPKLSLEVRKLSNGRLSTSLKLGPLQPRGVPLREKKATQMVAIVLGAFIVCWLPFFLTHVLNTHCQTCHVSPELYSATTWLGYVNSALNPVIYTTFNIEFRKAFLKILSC

Row | melting point | Compound | further results
1 | 235 to 236 °C | O=C(/C=C/c1cnc(-c2ccccc2)[nH]1)N1CCN(c2ncccn2)CC1 [Compound 119, 2-phenyl-4(5)-[(4-(2-pyrimidinyl)-piperazin-1-yl)-propen-1-oyl]-imidazole] | 
2 | 196 to 199 °C | Ic1nc(-c2ccccc2)[nH]c1CN1CCN(c2ncccn2)CC1 (as salt: hydroiodid) [Compound 90, 2-phenyl-5-iodo-4(5)-[(4-(2-pyrimidinyl)piperazin-1-yl)methyl]-imidazole hydroiodide salt] | 
3 | 155 to 157 °C | c1ccc(CC2CCN(Cc3ncc(-c4ccccc4)[nH]3)CC2)cc1 (as salt: fumarate) [Compound 77, 4-phenyl-2(5)-[(4-benzylpiperidin-1-yl)-methyl]imidazole] | 
4 | 189 to 191 °C | c1ccc(CC2CCN(CC3CCCc4[nH]c(-c5ccccc5)nc43)CC2)cc1 (stereo not drawn) [Compound 138, 2-phenyl-7-[(4-benzyl-piperidin-1-yl)-methyl]-4,5,6,7-tetrahydrobenzimidazole] | 
5 | 210 to 213 °C | c1cnc(N2CCN(Cc3cnc(C4CCCCC4)[nH]3)CC2)nc1 [Compound 128, 2-cyclohexyl-4(5)-[(4-(2-pyrimidinyl)-piperizin-1-yl)-methyl]-imidazole] | 
6 | 231 to 232 °C | O=C(c1cnc(-c2ccccc2)[nH]1)N1CCN(c2ncccn2)CC1 [Compound 144, 2-phenyl-4(5)-N-[(4-(2-pyrimidinyl)piperazin-1-yl)-carboxamido]-imidazole] | 
7 | 178 to 180 °C | Cc1ccc(-c2ncc(CN3CCN(c4ncccn4)CC3)[nH]2)cc1 [Compound 133] | 
8 | 130 to 135 °C | C[C@@H]1CN(c2ncccn2)C[C@H](C)N1Cc1cnc(-c2ccccc2)[nH]1 [Compound 140, 2-phenyl-4(5)-[(4-(2-pyrimidinyl)-cis-2,6-dimethylpiperazin-1-yl)-methyl]-imidazole] | 

More lines, now with the values behind:

Row | Compound | melting point | further results
9 | c1ccc(-c2nc(CN3CCN(c4ccccn4)CC3)c[nH]2)cc1 [Compound 24, 2-Phenyl-4(5)-[(4-(2-pyridyl)-piperazin-1-yl)-methyl]-imidazole dihydrochloride] |  | Ki [1]: 0.85 nM; antagonist binding to D4 receptors in hippocampus [2]: antagonists binding to dopamine D4 receptors; Ki (Dopamine Receptor D2): 1030 nM; antagonist binding to D4 receptors in hippocampus [3]: antagonists binding to dopamine D4 receptors
10 | c1ccc(-c2ncc(CN3CCN(c4ccccc4)CC3)[nH]2)cc1 [Compound 45, 2-Phenyl-4(5)-[(4-phenyl-piperazin-1-yl)methyl]imidazole] |  | Ki [1]: 5 nM; Ki (Dopamine Receptor D3): 169 nM; antagonist binding to D4 receptors in hippocampus [2]: antagonists binding to dopamine D4 receptors; Ki (Dopamine Receptor D2): 239 nM; antagonist binding to D4 receptors in hippocampus [3]: antagonists binding to dopamine D4 receptors
11 | COc1ccccc1N1CCN(Cc2cnc(-c3ccccc3)[nH]2)CC1 [Compound 19, 2-phenyl-4-(5)-[(4-(2-methoxyphenyl)-piperazin-1-yl)-methyl]imidazole] | 105 to 107 °C | 
12 | Fc1ccccc1-c1ncc(CN2CCC(c3ccccc3)CC2)[nH]1 (as salt: maleate) [Compound 52, 2-(2-Fluorophenyl)-4(5)[(4-phenyl-piperidin-1-yl)-methyl]-imidazole dimaleate] | 142 to 144 °C | 
13 | COc1ccc(Cl)cc1-c1ncc(CN2CCN(c3ccccc3OC)CC2)[nH]1 (as salt: hydrochloride) [Compound 43, 2-(5-Chloro-2-methoxyphenyl)-4(5)-[(4-(2-methoxyphenyl)-piperazin-1-yl)-methyl]-imidazole dihydrochloride] | 138 to 143 °C | 
14 | COc1ccc(-c2nc(CN3CCC(c4ccccc4)CC3)c[nH]2)cc1 (as salt: hydrochloride) [Compound 47, 2-(4-Methoxyphenyl) -4(5)[(4-phenyl-piperidin-1-yl)-methyl]-imidazole dihydrochloride] | 196 to 199 °C | 
15 | Clc1ccc(N2CCN(Cc3cnc(-c4ccccc4)[nH]3)CC2)cc1Cl [Compound 61, 2-Phenyl-4(5)-[(4(3,4-dichlorophenyl)-piperazin-1-yl-)methyl]imidazole] | 179 to 181 °C | 
16 | c1ccc(-c2ncc(CN3CCN(c4ncccn4)CC3)[nH]2)cc1 [Compound 23, 2-Phenyl-4(5)-[(4-(2-pyrimidinyl)-piperazin-1-yl)-methyl]-imidazole dihydrochloride] |  | Ki [1]: 2.7 nM; Ki (Dopamine Receptor D3): 8200 nM; antagonist binding to D4 receptors in hippocampus [2]: antagonists binding to dopamine D4 receptors; passive avoidance retention (time on platform at retest) vs vehicle (male Sprague Dawley rats; 0.25 mg/kg i.v. 5 minutes prior to training, retest about 24 hours later, dihydrochloride, 0.25 mg/kg): significant improvement in memory; also recorded: significantly longer time; passive avoidance acquisition vs vehicle (male Sprague Dawley rats; 0.03-1.0 mg/kg i.v. 5 minutes prior to training): no significant differences for acquisition; antagonist binding to D4 receptors in hippocampus [3]: antagonists binding to dopamine D4 receptors
17 | COc1cc(Br)cc(-c2ncc(CN(C)C)[nH]2)c1OC (as salt: hydrochloride) [Compound 16, 2-(5-Bromo-2,3-dimethoxyphenyl)-4(5)-[(N,N-dimethyl)aminomethyl]-imidazole dihydrochloride] | 194 °C | 
18 | Fc1ccnc(N2CCN(Cc3cnc(-c4ccccc4)[nH]3)CC2)n1 (as salt: hydrochloride) [Compound 58, 2-Phenyl-4(5)-[(4-(4-fluoro-2-pyrimidinyl)-piperazin-1yl)-methyl]imidazole dihydrochloride] | 188 to 190 °C | 
